For eight compounds, TGI results are on record in PubChem BioAssay (NCI).

Common to all, as to assay: NCI tumour cell line growth inhibition, 48 h
In experiment [1] the test system is 786-0 renal.
Experiment [2] concerns A498 renal.
Experiment [3] concerns A549 NSCLC.
For experiment [4], the system named is COLO 205 colon.
For experiment [5], the system named is EKVX NSCLC.
For experiment [6], the system named is HOP-92 NSCLC.
The subject of experiment [7] is HT29 colon.
Experiment [8] deals with IGROV1 ovarian.
Experiment [9] has as its system MOLT-4 leukemia.
Experiment [10] deals with NCI-H226 lung.
Experiment [11] deals with NCI-H23 lung.
Experiment [12] has as its system NCI-H460 lung.
The test system of experiment [13] is OVCAR-3 ovarian.
The test system of experiment [14] is OVCAR-5 ovarian.
The subject of experiment [15] is OVCAR-8 ovarian.
Experiment [16] relates to SK-MEL-2 melanoma.
Experiment [17] has as its system SNB-75 CNS.
The test system of experiment [18] is SW-620 colon.
In experiment [19] the test system is UACC-257 melanoma.
Experiment [20] relates to DU-145 prostate.

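Following 48 hours of exposure in 96-well plates, responses at five concentrations were used to interpolate endpoints linearly. TGI marks complete inhibition of growth.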

Regarding `O=C1C2C=CC(C2)C(c2ccc(O)cc2)N1O` (stereo not drawn), the TGI in [1], in [2], in [3], in [4], in experiment [5] and in experiment [6] was above 100 µM in each case. The TGI in [7], in experiment [8], in experiment [9], in experiment [10], in experiment [11] and in experiment [12] was above 100 µM in each case. Moreover, the TGI in [13], in experiment [14], in experiment [15], in experiment [16], in experiment [17] and in [18] was above 100 µM in each case. Also, the TGI in experiment [19] was above 100 µM.
For `CN(C)CC1CCCC(CN(C)C)C1=NOC(=O)c1ccccc1` (stereo not drawn), the TGI in experiment [1], in experiment [2], in [3], in experiment [4], in experiment [5] and in [6] was above 100 µM in each case. The TGI in [7], in experiment [8], in experiment [9], in experiment [10], in experiment [11] and in [12] was above 100 µM in each case. The TGI in [13], in experiment [14], in experiment [15], in [16], in experiment [17] and in experiment [18] was above 100 µM in each case. In addition, in experiment [19], the TGI was above 100 µM.
With `O=S(Nc1ccccc1)c1ccc(Cl)c(Cl)c1` (stereo not drawn), the TGI in [1], in experiment [3], in [4], in experiment [20], in [5] and in experiment [7] was above 100 µM each time. The TGI in [8], in experiment [9], in experiment [10], in experiment [11], in experiment [12] and in [13] was above 100 µM each time. Further, the TGI in [15], in experiment [16], in [18] and in experiment [19] was above 100 µM throughout.
Regarding `S=C1CSc2c(ccc3ccccc23)N1`, the TGI in experiment [1], in [3], in [4], in experiment [20], in experiment [5] and in [7] was above 100 µM each time. Also, the TGI in experiment [8], in experiment [9], in [10], in [11], in experiment [12] and in experiment [13] was above 100 µM in each case. Besides, the TGI in experiment [14], in [15], in experiment [17] and in experiment [19] was above 100 µM each time.
Regarding `COc1cc([C@H]2CC(=O)C[C@H](c3cc(OC)c(OC)c(OC)c3)C23C(=O)c2ccccc2C3=O)cc(OC)c1OC`, the TGI in [1], in [3], in experiment [4], in experiment [20], in experiment [5] and in experiment [6] was above 100 µM throughout. Further, the TGI in experiment [7], in experiment [8], in [9], in experiment [10], in experiment [11] and in experiment [12] was above 100 µM each time. The TGI in experiment [13], in experiment [14], in experiment [15], in experiment [16], in experiment [18] and in experiment [19] was above 100 µM each time.
Regarding `COC(=O)[C@]12CC=C3O[C@@H]4OC5(CCCCC5)O[C@@H]4C3[C@@H]1C(=O)CCC2=O` (stereo partly drawn), the TGI in experiment [1], in experiment [2], in experiment [3], in experiment [4], in [5] and in [6] was above 100 µM throughout. In addition, the TGI in [7], in [8], in experiment [9], in experiment [10], in [11] and in experiment [12] was above 100 µM throughout. Also, the TGI in experiment [13], in [14], in experiment [15], in [16], in [17] and in [18] was above 100 µM throughout. This compound also showed a TGI in experiment [19] above 100 µM.
As to `COc1cc2c(cc1OC)[C@H]1C(COC(=O)c3ccccc3)CSC(=Nc3ccccc3)N1CC2` (stereo partly drawn), the TGI in [1], in experiment [2], in experiment [3], in experiment [4], in experiment [5] and in [6] was above 100 µM throughout. Moreover, the TGI in experiment [7], in [8], in [10], in experiment [11], in experiment [12] and in [13] was above 100 µM throughout. Further, the TGI in experiment [14], in experiment [15], in [16], in experiment [17], in experiment [18] and in [19] was above 100 µM throughout.
Take `O=C(c1ccccc1)N1OCCC1Nc1ccc(Br)cc1` (stereo not drawn): the TGI is above 10 µM in experiment [1]; above 10 µM in experiment [3]; 4.33 µM in experiment [4]; above 10 µM in experiment [20]; above 10 µM in experiment [5]; above 10 µM in experiment [7]. Besides, the TGI in experiment [8], in [9], in experiment [10], in experiment [11], in [12] and in experiment [13] was above 10 µM in each case. Moreover, the TGI in [14], in experiment [15], in [16], in [17], in experiment [18] and in experiment [19] was above 10 µM throughout.
